assay: Octanol-water partition coefficient, log P of the compound; type: physicochemical

In order of falling logP:
1. Cc1ccccc1N1C(=O)c2c(C)nc3ccc(Br)cc3c2C1=O  5.33
2. Cc1nc2ccc(S(=O)(=O)N3CCCC3COc3ccccc3)cc2c2c1C(=O)N(c1c(C)nn(C)c1C)C2=O (centres undefined)  4.67
3. Cc1ccccc1N1C(=O)c2c(C)nc3ccccc3c2C1=O  4.54
4. Cc1nc2ccc(Br)cc2c2c1C(=O)N(c1c(C)nn(C)c1C)C2=O  4.43
5. COC(=O)C(Cc1ccccc1)NS(=O)(=O)c1ccc2nc(C)c3c(c2c1)C(=O)N(c1c(C)nn(C)c1C)C3=O (centres undefined)  4.2
6. Cc1nc2ccc(C#N)cc2c2c1C(=O)N(c1c(C)nn(C)c1C)C2=O  3.68
7. Cc1ccccc1N1C(=O)c2c(C)nc3ccc(S(=O)(=O)N4CCOCC4)cc3c2C1=O  3.21
8. Cc1nc2ccc(Br)cc2c2c1C(=O)N(C)C2=O  2.95
9. Cc1nc2ccc(Br)cc2c2c1C(=O)NC2=O  2.71
10. COC(=O)CCN1C(=O)c2c(C)nc3ccc(Br)cc3c2C1=O  2.71
11. COC(=O)CN1C(=O)c2c(C)nc3ccc(Br)cc3c2C1=O  2.53
12. Cc1nc2ccc(S(=O)(=O)N3CCOCC3)cc2c2c1C(=O)N(c1c(C)nn(C)c1C)C2=O  2.31
13. COCCNS(=O)(=O)c1ccc2nc(C)c3c(c2c1)C(=O)N(c1c(C)nn(C)c1C)C3=O  2.24
14. Cc1nc2ccc(S(N)(=O)=O)cc2c2c1C(=O)N(c1c(C)nn(C)c1C)C2=O  2.16
15. COC(=O)CCN1C(=O)c2c(C)nc3ccc(F)cc3c2C1=O  2.06
16. Cc1nc2ccc(F)cc2c2c1C(=O)NC2=O  2.05
17. Cc1nc2ccc(S(=O)(=O)NCCO)cc2c2c1C(=O)N(c1c(C)nn(C)c1C)C2=O  1.96
18. COC(=O)CCN1C(=O)c2c(C)nc3ccccc3c2C1=O  1.92
19. COC(=O)CN1C(=O)c2c(C)nc3ccc(F)cc3c2C1=O  1.87
20. COC(=O)CN1C(=O)c2c(C)nc3ccccc3c2C1=O  1.73
21. Cc1nc2ccc(S(=O)(=O)N3CCOCC3)cc2c2c1C(=O)N(C)C2=O  0.83
22. COC(=O)CCN1C(=O)c2c(C)nc3ccc(S(=O)(=O)N4CCOCC4)cc3c2C1=O  0.585
23. Cc1nc2ccc(S(=O)(=O)N3CCOCC3)cc2c2c1C(=O)NC2=O  0.584
24. COC(=O)CN1C(=O)c2c(C)nc3ccc(S(=O)(=O)N4CCOCC4)cc3c2C1=O  0.404
